Test [1] deals with GSK3α (Homo sapiens, UniProt P49840). Nature of the test: radioactive […]-ATP in vitro kinase assay, 10-dose IC50, […] ATP. The test is classed as biochemical.
Test [2] concerns the target GSK3β (Homo sapiens, UniProt P49841). The description is as above. The format is biochemical.

Sequence of GSK3α (P49840 2-483): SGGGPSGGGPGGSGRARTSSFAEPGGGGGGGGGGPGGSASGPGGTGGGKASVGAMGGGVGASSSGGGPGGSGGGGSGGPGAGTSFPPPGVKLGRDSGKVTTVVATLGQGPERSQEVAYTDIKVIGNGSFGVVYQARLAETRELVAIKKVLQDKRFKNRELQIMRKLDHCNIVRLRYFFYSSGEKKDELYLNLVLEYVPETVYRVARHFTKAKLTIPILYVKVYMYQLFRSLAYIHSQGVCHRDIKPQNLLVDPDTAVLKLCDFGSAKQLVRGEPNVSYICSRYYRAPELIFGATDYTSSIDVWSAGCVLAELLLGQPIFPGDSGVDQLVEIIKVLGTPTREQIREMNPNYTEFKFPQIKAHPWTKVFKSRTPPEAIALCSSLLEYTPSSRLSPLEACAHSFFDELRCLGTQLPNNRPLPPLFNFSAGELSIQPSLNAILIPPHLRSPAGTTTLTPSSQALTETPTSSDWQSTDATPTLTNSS
Sequence of GSK3β (P49841 whole entry): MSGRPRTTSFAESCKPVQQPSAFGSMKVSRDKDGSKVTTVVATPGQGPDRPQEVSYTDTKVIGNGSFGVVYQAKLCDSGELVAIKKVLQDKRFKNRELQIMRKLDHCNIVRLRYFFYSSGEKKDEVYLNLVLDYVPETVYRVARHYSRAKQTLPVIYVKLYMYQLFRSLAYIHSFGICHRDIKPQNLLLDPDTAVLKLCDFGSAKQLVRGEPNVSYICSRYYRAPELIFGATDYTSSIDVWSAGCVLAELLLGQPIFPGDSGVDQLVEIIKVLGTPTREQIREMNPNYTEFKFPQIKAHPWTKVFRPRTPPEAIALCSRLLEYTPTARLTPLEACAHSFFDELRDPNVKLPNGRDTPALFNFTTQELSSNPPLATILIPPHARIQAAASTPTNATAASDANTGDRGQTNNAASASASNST

In the case of GS87, the figures for the IC50 in test [1] and in test [2] were 415 nM and 521 nM, respectively.
